Reference: US20240158446A1, “CYCLIC COMPOUND HAVING SELECTIVE INHIBITORY ACTION ON KRAS OVER HRAS AND NRAS” (CHUGAI SEIYAKU KABUSHIKI KAISHA, priority 2021, published 2024)
Where two headings read alike, the source gives them in different places. *1 amine or outer side, *2 acyl side, *3 side chain or, on linkers, in order; H or OH if unused. Where a SMILES comes first, the peptide text is derived from it. Bridges are numbered along the chain shown (N, C = ends). [ ]: non-standard residue; d: D form. The star is where a group is joined. hPhe(3,5-F2-4-CF3) = N[C@@H](CCc1cc(F)c(C(F)(F)F)c(F)c1)C(=O)O; hPhe(3-Cl-4-CF3) = N[C@@H](CCc1ccc(C(F)(F)F)c(Cl)c1)C(=O)O; NPrPhe(4-CF3) = CCCN[C@@H](Cc1ccc(C(F)(F)F)cc1)C(=O)O; Morpholine(3S-CO) = O=C(O)[C@@H]1COCCN1; NMeGly(cPent) = CN[C@H](C(=O)O)C1CCCC1; X11 = CCC[C@](C)(N[*:1])C(=O)[*:2]; NMeD = CN[C@@H](CC(=O)O)C(=O)O; NMeL = CN[C@@H](CC(C)C)C(=O)O; Morpholide = C1CN(*)CCO1; Ac5c = NC1(C(=O)O)CCCC1; Aze = O=C(O)[C@@H]1CCN1; Sar = CNCC(=O)O

Columns and labels:
[1] = molecular target: GDP-bound HRAS wild-type protein (Homo sapiens, UniProt P01112); experiment: Binding to HRAS by surface plasmon resonance (SPR), Single Cycle Kinetics; conditions: for HRAS/KRAS (ratio of KD value with respect to HRAS to KD value with respect to KRAS) / HRAS/KRAS (ratio of KD value for HRAS to KD value for KRAS): SPR, GDP-bound HRAS wild-type protein vs GDP-bound KRAS wild-type protein
[2] = molecular target: GDP-bound NRAS wild-type protein (Homo sapiens, UniProt P01111); experiment: Binding to NRAS by surface plasmon resonance (SPR), Single Cycle Kinetics; conditions: for NRAS/KRAS (ratio of KD value with respect to NRAS to KD value with respect to KRAS) / NRAS/KRAS (ratio of KD value for NRAS to KD value for KRAS): SPR, GDP-bound NRAS wild-type protein vs GDP-bound KRAS wild-type protein
[3] = tested on: human lung cancer strain NCI-H441;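 note: cell proliferation inhibition after four days measured by CellTiter-Glo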

Chain of GDP-bound NRAS wild-type protein (P01111 whole entry): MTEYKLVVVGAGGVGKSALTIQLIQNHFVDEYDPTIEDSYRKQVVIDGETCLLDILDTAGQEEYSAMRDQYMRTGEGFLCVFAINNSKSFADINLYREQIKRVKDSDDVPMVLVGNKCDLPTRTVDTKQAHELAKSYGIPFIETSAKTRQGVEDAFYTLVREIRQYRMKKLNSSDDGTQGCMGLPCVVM
Chain of GDP-bound HRAS wild-type protein (P01112 whole entry): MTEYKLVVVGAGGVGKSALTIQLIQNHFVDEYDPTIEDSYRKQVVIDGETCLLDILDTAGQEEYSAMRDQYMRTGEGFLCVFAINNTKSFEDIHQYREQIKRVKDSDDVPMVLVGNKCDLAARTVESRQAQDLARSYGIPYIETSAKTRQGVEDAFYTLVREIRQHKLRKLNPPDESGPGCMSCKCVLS

Compound	IC50 [3]	HRAS/KRAS (ratio of KD value with respect to HRAS to KD value with respect to KRAS) [1]	NRAS/KRAS (ratio of KD value with respect to NRAS to KD value with respect to KRAS) [2]	HRAS/KRAS (ratio of KD value for HRAS to KD value for KRAS) [1]	NRAS/KRAS (ratio of KD value for NRAS to KD value for KRAS) [2]	HRAS/KRAS (ratio of KD value with respect to GDP-bound HRAS wild-type protein to KD value with respect to KRAS) ([1]; SPR KD ratio HRAS/KRAS, class symbols)	NRAS/KRAS (ratio of KD value with respect to GDP-bound NRAS wild-type protein to KD value with respect to KRAS) ([2]; SPR KD ratio NRAS/KRAS, class symbols)	IC50 ([3]; read-out: NCI-H441 IC50, NCI-H441 cells, four days, CellTiter-Glo)
CCCN1C(=O)CN(C)C(=O)[C@@H]2CCN2C(=O)[C@H]([C@@H](C)CC)NC(=O)[C@H](CC(C)C)N(C)C(=O)C[C@@H](C(=O)N2CCOCC2)N(C)C(=O)[C@H](C2CCCC2)N(C)C(=O)C2(CCCC2)NC(=O)[C@@H]2COCCN2C(=O)[C@H](CCc2ccc(C(F)(F)F)c(Cl)c2)NC(=O)CN(C)C(=O)[C@@H]1Cc1ccc(C(F)(F)F)cc1 [PP0313] ([NMeL]I[Aze][Sar][NPrPhe(4-CF3)][Sar][hPhe(3-Cl-4-CF3)][Morpholine(3S-CO)][Ac5c][NMeGly(cPent)][NMeD]-Morpholide; lactam N-11)	56.6 nM	–	–	C (A compound having a KD ratio of 0.1 or more and less than 3 is denoted as C)	B (a compound having 3 or more and less than 10 is denoted as B)	–	–	–
CCO[C@@H]1C[C@H]2C(=O)NC3(CCC3)C(=O)N(C)[C@@H](C3CCCC3)C(=O)N(C)[C@H](C(=O)N(C)C)CC(=O)N(CC)[C@@H](CC(C)C)C(=O)N[C@@H]([C@@H](C)CC)C(=O)N(C)CC(=O)N(C)[C@H]3CC(C)=C(C)CN(C3=O)[C@@H](Cc3ccc(C(F)(F)F)cc3)C(=O)N(C)CC(=O)N[C@@H](CCc3cc(F)c(C(F)(F)F)c(F)c3)C(=O)N2C1 [PP1051]	286 nM	–	–	C (A compound having a KD ratio of 0.1 or more and less than 3 is denoted as C)	C (A compound having a KD ratio of 0.1 or more and less than 3 is denoted as C)	–	–	–
CCO[C@@H]1C[C@H]2C(=O)NC3(CC(C)(C)C3)C(=O)N(C)[C@@H](C3CCCC3)C(=O)N(C)[C@H](C(=O)N(C)C)CC(=O)N(C)[C@@H](CC(C)C)C(=O)N[C@@H]([C@@H](C)CC)C(=O)N(C)CC(=O)N(C)[C@H]3C/C=C\CCN(C3=O)[C@@H](Cc3ccc(C)c(F)c3)C(=O)N(C)CC(=O)N[C@@H](CCc3ccc(C(F)(F)F)c(OC)c3)C(=O)N2C1 [PP2689]	–	–	–	–	–	B (a compound having 3 or more and less than 10 is denoted as B)	A (a compound having 10 or more and less than 20 is denoted as A)	6.2 nM
CCCN1C(=O)CN(C)C(=O)[C@@H]2CCN2C(=O)[C@H]([C@@H](C)CC)NC(=O)[C@H](CC(C)C)N(C)C(=O)C[C@@H](C(=O)N2CCOCC2)N(C)C(=O)[C@H](C2CCCC2)N(C)C(=O)[C@](C)(CCC)NC(=O)[C@@H]2CCCN2C(=O)[C@H](CCc2cc(F)c(C(F)(F)F)c(F)c2)NC(=O)CN(C)C(=O)[C@@H]1Cc1ccc(C(F)(F)F)cc1 [PP0775] ([NMeL]I[Aze][Sar][NPrPhe(4-CF3)][Sar][hPhe(3,5-F2-4-CF3)]P[X11][NMeGly(cPent)][NMeD]-Morpholide; lactam N-11)	417 nM	B (a compound having 3 or more and less than 10 is denoted as B)	B (a compound having 3 or more and less than 10 is denoted as B)	–	–	–	–	–

Now from value to compound, other results behind:

IC50 [3]	Compound	HRAS/KRAS (ratio of KD value with respect to HRAS to KD value with respect to KRAS) [1]	NRAS/KRAS (ratio of KD value with respect to NRAS to KD value with respect to KRAS) [2]	HRAS/KRAS (ratio of KD value for HRAS to KD value for KRAS) [1]	NRAS/KRAS (ratio of KD value for NRAS to KD value for KRAS) [2]	HRAS/KRAS (ratio of KD value with respect to GDP-bound HRAS wild-type protein to KD value with respect to KRAS) ([1]; SPR KD ratio HRAS/KRAS, class symbols)	NRAS/KRAS (ratio of KD value with respect to GDP-bound NRAS wild-type protein to KD value with respect to KRAS) ([2]; SPR KD ratio NRAS/KRAS, class symbols)	IC50 ([3]; read-out: NCI-H441 IC50, NCI-H441 cells, four days, CellTiter-Glo)
70.7 nM	CC[C@H](C)[C@@H]1NC(=O)[C@@H](CC(C)C)N(C)C(=O)C[C@@H](C(=O)N(C)C)N(C)C(=O)[C@@H](C2CCCC2)N(C)C(=O)C2(CCCC2)NC(=O)[C@@H]2CCCN2C(=O)[C@H](CCc2ccc(C(F)(F)F)c(Cl)c2)NC(=O)CN(C)C(=O)[C@@H](Cc2ccc(C(F)(F)F)cc2)N2CC/C=C\CCN(CC2=O)C(=O)CN(C)C1=O [PP0619]	C (A compound having a KD ratio of 0.1 or more and less than 3 is denoted as C)	C (A compound having a KD ratio of 0.1 or more and less than 3 is denoted as C)	–	–	–	–	–
5.4 nM	CC[C@H](C)[C@@H]1NC(=O)[C@H](CC(C)C)N(C)C(=O)C[C@@H](C(=O)N2CCOCC2)N(C)C(=O)[C@H](C2CCCC2)N(C)C(=O)C2(CCCC2)NC(=O)[C@@H]2CCCN2C(=O)[C@H](CCc2ccc(C(F)(F)F)c(Cl)c2)NC(=O)CN(C)C(=O)[C@H](Cc2ccc(C)cc2)N2CC=CC[C@@H](C2=O)N(C)C(=O)CN(C)C1=O [PP0460]	C (A compound having a KD ratio of 0.1 or more and less than 3 is denoted as C)	C (A compound having a KD ratio of 0.1 or more and less than 3 is denoted as C)	–	–	–	–	–
158 nM	CC[C@H](C)[C@@H]1NC(=O)[C@@H](CC(C)C)N(C)C(=O)C[C@@H](C(=O)N(C)C)N(C)C(=O)[C@H](C2CCCC2)N(C)C(=O)C2(CCCC2)NC(=O)[C@@H]2CCCN2C(=O)[C@@H](CCc2ccc(C(F)(F)F)c(Cl)c2)NC(=O)CN(C)C(=O)[C@@H](Cc2ccc(C(F)(F)F)cc2)N2C/C=C\COC[C@@H](C2=O)N(C)C(=O)CN(C)C1=O [PP0626]	C (A compound having a KD ratio of 0.1 or more and less than 3 is denoted as C)	C (A compound having a KD ratio of 0.1 or more and less than 3 is denoted as C)	–	–	–	–	–
